Experimental findings from US20140350114A1, “COMPOSITIONS COMPRISING CYCLOHEXYLAMINES AND AMINOADAMANTANES” (MERZ PHARMA GmbH & CO. KGaA, priority 2003, published 2014) are described below.

A short description of assay [1]: antimicrobial activity in preserving liquid aqueous formulations (general observation). As to conditions: at concentrations useful for pharmaceutical formulation purposes.
For assay [2], the system named is Candida albicans, Aspergillus niger, Escherichia coli, Pseudomonas aeruginosa, Staphylococcus aureus. Description: Antimicrobial Effectiveness Testing USP <51>, overall conclusion. Type of assay: cell-based. As to conditions: all inoculums. The method, then: The testing was performed in accordance with the USP <51> using the culture conditions for inoculum specified in the test conditions. The Antimicrobial Effectiveness Testing (referred to later in the text as APE or antimicrobial effectiveness) is performed as described in USP 26, The United States Pharmacopeial Convention, Inc. (Rockville, Md., 2002; pp. 2002-2004). The test is conducted in five sterile, capped bacteriological containers into which a sufficient volume of product has been transferred. Test organisms include Candida albicans (ATCC No. 10231), Aspergillus niger (ATCC No. 16404), Escherichia coli (ATCC No. 8739), Pseudomonas aeruginosa (ATCC No. 9027), Staphylococcus aureus (ATCC No. 6538). Each container is inoculated with one of the prepared and standardized inoculum, and mix. […] The number of cfu present in each test preparation is determined by the plate-count procedure, specified in the monograph, for the applicable intervals. Using the calculated concentrations of cfu per mL present at the start of the test, the change in log10 values of the concentration of cfu per mL for each microorganism is calculated at the applicable test intervals, and the changes in terms of log reductions is expressed. Results are evaluated in accordance with the Product Category for Oral Products made with aqueous bases or vehicle.

For the compound `CC12CC3CC(C)(C1)CC(N)(C3)C2` [memantine, 1-amino-3,5-dimethyl adamantane], the antimicrobial activity result in assay [1] was “significant antimicrobial activity”.
For `CC1(C)CC(C)(C)CC(C)(N)C1` [neramexane, 1-amino-1,3,3,5,5-pentamethylcyclohexane], the “antimicrobial / preservative effectiveness against USP <51> criteria (conclusion)” value in assay [2] is reported as “sufficient preservative efficacy”. In addition, the antimicrobial activity entry in assay [1] is on record as “significant antimicrobial activity”.
In the case of `CN(C)CCOCC(=O)NC12CC3CC(CC(C3)C1)C2` [tromantadine, 1-(dimethylaminoethoxyacetamido) adamantane], the antimicrobial activity entry in assay [1] is “significant antimicrobial activity”.
